Laboratory results taken from patent US8586108B2, “Extracts of Chenopodium ambrosioides L., the compositions comprising said extracts, the preparing process and application thereof” (Tasly Pharmaceutical Group Co., Ltd, priority 2005, dated 2013).
Marks after values point to notes of the source that are not given here.

Assays:
[1] = test system: gastric ulcers of pyloric ligation type; assay: Effect on gastric ulcers of pyloric ligation type in rats; assay type: in vivo, Wistar rats; details: 200 mg/kg i.g. once per day for 3 days; 5 grades by Okabe's method; X ± SD, n = 10
Experimental: Eighty Wistar rats weighing about 160 g were selected in this experiment, male and female in half, and were randomly divided into 8 groups, 10 rats per group. Drugs were continually administered i.g. with the dosage listed in Table 3 for 3 days, once per day, while the model control group was administered i.g. with the same volume of vegetable oil. The animals were anaesthetized by ether after 2 hours of the last administration (the rats were fasted for 48 hours before administration), and their abdomens were shaved and sterilized. A small incision was cut below the xiphoid. Their stomach was gently pulled out, and the stomach was then put back to the abdomen after pyloric ligation, and the incision was sewed up. After operation, the rats were abstained from food and water for 6 hours and executed after anaesthesia. The abdomen was cut open, the cardia was ligated, and the whole stomach was taken out and cut open along the greater curvature of stomach. After rinsing the content of stomach with saline, the stomach was fixed with 1% formaldehyde for 10 min, and then the diameters of the ulcer points were measured using precise calipers. Degree of the ulcer was expressed by total area of all ulcer points of each rat and was classified into 5 grades according to Okabe's method as index of ulcer.

[2] = test system: acetic acid-cautery type gastric ulcer; assay: Effect on gastric ulcer of rats induced by acetic acid cautery; assay type: in vivo, Wistar rats; details: 200 mg/kg i.g. once per day for 13 days; X ± SD, n = 10
Experimental: Eighty Wistar rats weighing between 200-220 g were selected in this experiment, male and female in half, and were randomly divided into 8 groups, 10 rats per group. Drugs were continually administered i.g. with the dosage listed in Table 2 for 13 days, once per day, while the model control group was administered i.g. with the same volume of vegetable oil. The model was established after 2 hours of the third administration. The rats were fasted for 24 hours before model-establishing and anaesthetized by ether, their abdomens were shaved and sterilized. A small incision was cut along the midline of the xiphoid. The stomach was gently pulled out, 10 μL 40% acetic acid was injected underneath the stomach chorion near pyloric gland areas. The stomach was then put back to the abdomen, and the incision was sewed up. Drugs were administered after operation. The rats were fasted for 24 hours after the last administration, and the animals were executed after being anaesthetized by urathane. […] After rinsing the content of stomach with saline, the stomach was fixed with 1% formaldehyde for 10 min, and then the diameters of ulcer points were measured using precise calipers and the ulcer areas were calculated. Ink was injected with a micro-syringe until its level reached the surface of gastric mucous membrane, and the volume of the injected ink was recorded. […]

Q: What does the source list for CNC(=C[N+](=O)[O-])NCCSCc1ccc(CN(C)C)o1 [Ranitidine]?
A: Index of Ulcer [1]: 0.8 ± 0.6; Ulcer area [2]: 8.08 ± 5.72** mm^2; Volumes of injected ink in ulcer region [2]: 2.85 ± 2.63 µL
